The structures appear in SMILES notation.

This data set is described as follows: Partition coefficient (logP). It counts as physicochemical. To be noted: octanol/water.
`O=C(O)COc1ccc(-c2c3nc(c(-c4ccc(OCC(=O)O)cc4)c4ccc(s4)c(-c4ccc(OCC(=O)O)cc4)c4nc(c(-c5ccccc5)c5ccc2s5)C=C4)C=C3)cc1`: the logP was -1.49.

As to `O=C(O)COc1ccc(-c2c3nc(c(-c4ccccc4)c4ccc(s4)c(-c4ccccc4)c4nc(c(-c5ccc(OCC(=O)O)cc5)c5ccc2s5)C=C4)C=C3)cc1`, the logP was found to be 0.036.

In turn, `O=C(O)COc1ccc(-c2c3nc(c(-c4ccccc4)c4ccc(s4)c(-c4ccccc4)c4nc(c(-c5ccc(OCC(=O)O)cc5)c5ccc2[se]5)C=C4)C=C3)cc1` had a logP of -0.67.

In turn, `O=C(O)COc1ccc(-c2c3nc(c(-c4ccccc4)c4ccc(s4)c(-c4ccccc4)c4nc(c(-c5ccccc5)c5ccc2s5)C=C4)C=C3)cc1` registered a logP greater than 3.5.

In turn, `O=S(=O)(O)c1ccc(-c2c3nc(c(-c4ccc(F)cc4)c4ccc(s4)c(-c4ccc(F)cc4)c4nc(c(-c5ccc(S(=O)(=O)O)cc5)c5ccc2s5)C=C4)C=C3)cc1` came in with a logP of -1.9.

On to `O=C(O)COc1ccc(-c2c3nc(c(-c4ccc(OCC(=O)O)cc4)c4ccc(s4)c(-c4ccc(OCC(=O)O)cc4)c4nc(c(-c5ccc(OCC(=O)O)cc5)c5ccc2s5)C=C4)C=C3)cc1`, for which the logP is -0.95.

The term logP denotes the decadic logarithm of the partition coefficient of the neutral form, usually between octanol and water. Lower therefore signals lower lipophilicity.

These data come from ChEMBL document CHEMBL1145057, “Water soluble, core-modified porphyrins. 3. Synthesis, photophysical properties, and in vitro studies of photosensitization, uptake, and localization with carboxylic acid-substituted derivatives” (J Med Chem, 2003).
